Reference: publication PMC12203428, “Discovery of Clonixeril as a Sub-Femtomolar Modulator of the Human STING Receptor” (ACS Central Science, 2025)
Where two headings read alike, the source gives them in different places.

Columns and labels:
inflammation in rats = system: inflammation in rats; design: method as in not given; conditions: 30–300 mg/kg, ref not given, cited from earlier work
[1] = system: p-hSTING puncta in HEK293 cells; experiment: HEK293 immunofluorescence of p-hSTING; format: cell-based, human
Procedure: STING undergoes condensed cis-oligomerization as part of its signal transduction pathway and punctate structure formation of p-hSTING in the perinuclear region is indicative of hSTING oligomerization. We had speculated that CXL might affect hSTING oligomerization. […] HEK293 cells were treated with either 10 aM or 1 pM CXL for 1 h followed by 2 μM 2′,3′-cGAMP for 90 min. Cells treated with vehicle control for 1 h and then 2 μM of 2′,3′-cGAMP for 90 min were used as a positive control. At a 1 pM concentration of CXL, both p-hSTING and punctate structure formation were diminished.
HEK293 cells were seeded into four-chambered slides (5,000 cells/well.) 36 h later, sample 1 was first treated with vehicle control for 1 h and then transfected with 2 μM 2′,3′-cGAMP (InvivoGen) using Escort IV transfection reagent (Sigma Aldrich) for 1 h and 30 min. Samples 2 and 3 were first transfected with 10 aM and 1 pM CXL, respectively, for 1 h, followed by 2 μM 2′,3′-cGAMP for 1 h and 30 min. […] DMSO concentration was kept constant across all treatment groups. Cells were fixed with 4% paraformaldehyde for 15 min and immunostained with p-STING antibody at 4 °C overnight with light agitation. The slides were incubated with Alexa 594 rabbit secondary antibody for 1 h at RT. Subsequently, the slides were stained with Phalloidin conjugated to FITC (488) for 30 min at RT, mounted with solution containing 4′,6′-diamidino-2-phenylindole (DAPI) and imaged on a Fluorescent Microscope.

His-hSTING CTD = target: T1, His-hSTING CTD (Homo sapiens, UniProt Q86WV6, H232R); experiment: Surface plasmon resonance; format: binding; conditions: without 2′,3′-cGAMP competition; read-out: KD (SPR)
T1 construct: purchased Invivogen (USA) or Cayman Chemicals (USA)
T1 sequence (Q86WV6 153-340 H232R): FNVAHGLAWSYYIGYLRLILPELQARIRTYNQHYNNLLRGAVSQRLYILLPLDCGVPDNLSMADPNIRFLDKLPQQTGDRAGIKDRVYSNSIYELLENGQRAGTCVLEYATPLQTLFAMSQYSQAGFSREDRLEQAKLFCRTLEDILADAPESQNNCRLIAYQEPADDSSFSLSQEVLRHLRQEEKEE
Procedure: SPR was employed for binding measurements using the His-tagged hSTING^WT CDN domain. A GE Healthcare Biacore T200 was equipped with a Ni-NTA chip. […] The sensorgrams were analyzed using Biacore T200 Software 3.0 and steady state was measured at 4 s before injection stop, exported into Graphpad, and fit versus concentration using a one site specific binding model to calculate the apparent equilibrium dissociation constant (K D). Where appropriate, kinetics were measured using a 1:1 Langmuir binding model with R max set to local to obtain the association rate (K on), dissociation (K off)

[2] = Hydrolysis of clonixeril to clonixin by HPLC; format: physicochemical
Procedure: To determine clonixeril’s hydrolytic stability and evaluate its potential as an oral drug, an aqueous solution was concentrated for analysis at 20 µM. The sample was analyzed by HPLC using an […]
The UV spectra of these peaks were compared by diode array and found to be identical with maximum absorbance at 280nm and 343nm. […]
the minor first peak matched the molecular weight of clonixin (M+H)+ and the second major peak matched the molecular weight of clonixeril (M+H)+. Data was generated by measuring the ratio between the two peaks. Hydrolysis of clonixeril to clonixin was measured by HPLC over seven days using a 20 µM aqueous solution.
96.8% clonixeril (Figure S4B). Most of the hydrolysis occurred within the first two days at an average rate of […], and then slowed down to an average rate of 0.07% per hour by day seven (Figure S4B). The rate decrease correlated with an observable decrease in solution pH as a product of hydrolysis. Further samples solubilized in pH 2.00 phosphoric acid and pH 1.99 hydrochloric acid confirmed that the rate decreases to an average of 0.014% per hour over […]
a seven-day period. […]

[3] = system: p-IRF3 in HEK293S cells (hSTING pathway); experiment: Phospho-IRF3 Western blot in HEK293S cells with diABZI3; format: cell-based, human; conditions: 100 fM compound, 100 nM diABZI3, preliminary
Procedure: HEK293T cells transfected with hSTINGWT cells were seeded in a 6-well plate in DMEM
(supplemented with 10% heat-inactivated fetal bovine serum, 1X Corning Penicillin-Streptomycin
solution and 0.01mg/mL Blasticidin). Upon reaching ~80% confluence, cells were pretreated with
varying concentrations of CXL in FBS-free DMEM for 2 hours. This was followed by treatment
with diABZI3 (100nM) for 1 hour. The cells were scraped, harvested by centrifugation at 1000 x g
for 3 mins. The resulting pellet is resuspended in 1X PBS with 1X Halt protease & phosphatase
inhibitor and 1% NP-40. Cell lysis was performed by probe sonication. The cell lysate is further
denatured in 1X SDS loading buffer by boiling for 10 mins and separated by SDS-PAGE (4-20%
gel). The separated proteins were electrically transferred to a PVDF membranes separately,
which was probed with primary (α-pIRF3, α-IRF3 & α-STING) and secondary (goat anti-rabbit IR
dye 680 & goat anti-mouse IR dye 800CW) antibodies. The blots were visualized using a LICOR
Image Analyzer. All the experiments were performed at least in duplicate.

SUMO-hSTING CTD = SUMO-hSTING CTD (Homo sapiens, UniProt Q86WV6, H232R); experiment: Dynamic light scattering of STING oligomerization
Chain of SUMO-hSTING CTD (Q86WV6 155-343 H232R): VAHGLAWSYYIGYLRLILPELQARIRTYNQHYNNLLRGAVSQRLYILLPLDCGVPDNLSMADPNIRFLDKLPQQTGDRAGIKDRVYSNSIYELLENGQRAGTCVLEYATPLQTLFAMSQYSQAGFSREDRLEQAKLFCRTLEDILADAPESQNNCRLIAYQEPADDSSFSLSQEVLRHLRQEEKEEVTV
Procedure: (B) DLS was performed for 2 h (n = 960 measurements) with 50 nM STING exposed to analytes. […] Blue blocks indicate size counts as a percentage to overall mass over selected mass ranges. […] Measurements were made using a Malvern Zetasizer Nano ZS set to 40 measurements at 1 s/measurement and 24 runs.

[4] = system: hSTING WT pathway (THP1 Dual KI-hSTING-R232 cells, IRF3 luciferase reporter); experiment: THP-1 IRF3 luciferase reporter assay, clonixeril as agonist
Procedure: 2 Luciferase assay utilizing monocytic leukemia (THP-1) cells. Cells (Invivogen THP1 Dual KI-hSTING-R232; wild type) were analyzed for activation of the hSTING WT pathway via an IRF3 luciferase reporter. Luminescence is reported in relative luminescence units (RLU). Error bars are SEM A. Dose–response of THP-1 cells treated with various concentrations of clonixeril (CXL); N = 6.
A 10 mM stock solution of CXL in 100% DMSO was diluted with ultrapure Milli Q water to make 3, 5, 10, 15, 20, 30, 40, 50 μM samples. The vehicle control contained blank cell medium treated with 0.1% DMSO. 20 μL sample/well of CXL or dilute DMSO (vehicle control) was added to a white, 300 μL, sterile 96 well plate. […] All samples contained a final DMSO concentration of 0.1%. […] The expression of Lucia luciferase was quantified by measuring the luminescence and evaluated in triplicate. Data are average luminescence changes shown as relative luminescence after subtraction of the background luminescence of vehicle-treated cells. A Glowmax luminometer with an injector was used for the measurement of luminescence in the luciferase assay. After the 10h incubation period, 20 μL/well of cell culture supernatant was transferred to a fresh well plate. A single injector added 50 μL of detection reagent per well, and immediately measured luminescence using a 4s incubation time integrated over 1 s.

Kd (His-hSTING CTD): 0.43 ± 0.14 µM
Initial hydrolysis, clonixeril ([2]; 20 µM aqueous solution): 96.8%
Initial hydrolysis, clonixin ([2]; 20 µM aqueous solution): 3.2%
Initial hydrolysis, clonixeril ([2]; 5% sodium bicarbonate): 88.2%
Initial hydrolysis, clonixin ([2]; 5% sodium bicarbonate): 11.8%
Average rate of hydrolysis ([2]; aqueous solution, by day seven): 0.07 % per hour
Average rate of hydrolysis ([2]; aqueous solution, first two days): 0.13 % per hour
Average rate of hydrolysis ([2]; pH 2.00 phosphoric acid and pH 1.99 hydrochloric acid, seven-day period): 0.014 % per hour
Hydrolysis ([2]; pH of 1.0): relatively slow hydrolysis
Hydrolysis ([2]; pH=2.0): surprisingly slow
Lowest concentration at which effect on oligomerization is observed (SUMO-hSTING CTD; 50 nM STING, 50 nM 2′,3′-cGAMP): 100 aM
SUMO-hSTING CTD oligomerization without 2′,3′-cGAMP present (SUMO-hSTING CTD; 50 nM STING, analyte alone): moderate amount of oligomerization
Size of protein aggregates (SUMO-hSTING CTD; 100 aM, 50 nM STING CTD, reviewer's reading): about 75 nm
EC50 ([4]; Homo sapiens, THP1-Dual KI-hSTING-R232, read-out: EC50 (agonist activity), CXL alone, THP-1 cells, Figure 2A): ~19 µM
EC50 ([4]; read-out: EC50 (agonist activity), CXL alone, THP-1 cells, Figure 2A): 20 µM
Compound: Cc1c(Cl)cccc1Nc1ncccc1C(=O)OCC(O)CO (centres unmarked) [CXL, clonixeril]
Ulcerogenic effects (inflammation in rats): without producing significant ulcerogenic effects
Anti-inflammatory effect (inflammation in rats; oral): anti-inflammatory effects
p-hSTING and punctate structure formation ([1]; 1 pM CXL 1 h, then 2 μM 2′,3′-cGAMP 90 min): diminished
2′,3′-cGAMP induced p-hSTING puncta formation in the perinuclear region ([1]; 10 aM CXL): may affect
Levels of hSTING phosphorylation ([1]; 10 aM CXL): qualitatively unaffected
Effect on p-IRF3 [3]: potent antagonistic behavior
Reduction in 2′,3′-cGAMP driven SUMO-hSTING CTD oligomerization (SUMO-hSTING CTD; 50 nM STING, 50 nM 2′,3′-cGAMP): alters the ability of SUMO-hSTING CTD to oligomerize
Agonist activity in luciferase reporter assay ([4]; compound alone): weak agonist activity
